Read-outs that look alike come from different tables or passages of the source.
What was measured:
MKN-1 cells = assay: Cellular phospho-ERK assay, MKN-1 cells (amplified wild-type KRAS); type: cell-based; details: Homo sapiens, read-out: MKN1 pERK IC50
Procedure, shortened: (§1)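 Cells seeded at 10,000-15,000 per well were incubated overnight, then exposed to compound for 2 hours at 37 °C in a 10-point, 1:3 series topping at 30 μM final. Lysates were assayed by Alpha SureFire Ultra multiplex for p-ERK and total ERK; IC50 came from a 4-parameter logistic fit of their ratio.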

SW620 cells = assay: Cellular phospho-ERK assay, SW620 cells (homozygous KRAS-G12V); type: cell-based; details: Homo sapiens, read-out: SW620 pERK IC50
Procedure, shortened: as §1

KRAS-G12D = KRAS-G12D (Homo sapiens, UniProt P01116, G12D); assay: SOS-catalyzed nucleotide exchange assay (Procedure A, TR-FRET), KRAS-G12D; type: biochemical; details: nucleotide exchange, read-out: KRAS G12D GNE IC50
Procedure, shortened: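 Signal ratio (520/495 nm, excitation 340 nm) reports Bodipy-GDP retention on biotinylated RAS after SOS-catalyzed exchange with 3 mM GTP. SOS was 40 nM, except 160 nM for G12V. Room-temperature exchange lasted 60 min (90 min for G12V), following a 60 min compound preincubation.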

KRAS-G12V = KRAS-G12V (Homo sapiens, UniProt P01116, G12V); assay: SOS-catalyzed nucleotide exchange assay (Procedure A, TR-FRET), KRAS-G12V; type: biochemical; details: nucleotide exchange, read-out: KRAS G12V GNE IC50
Procedure, shortened: (§2)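 Compounds (10-point, 3-fold) were preincubated 60 min at room temperature with a biotinylated RAS/Bodipy-GDP/Tb-streptavidin TR-FRET complex. Exchange was started with human SOS plus 3 mM GTP. RAS/SOS: G12C 3/40 nM, WT 1/40 nM, NRAS 1.25/40 nM (60 min); G12V 1.25/160 nM (90 min). The 520/495 ratio was fit four-parameter.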

AsPC-1 cells = assay: Cellular phospho-ERK assay, AsPC-1 cells (homozygous KRAS-G12D); type: cell-based; details: Homo sapiens, ASPC1, 2 h, read-out: AsPC1 pERK IC50
Procedure, shortened: as §1

KRAS-WT = KRAS-WT (Homo sapiens, UniProt P01116); assay: SOS-catalyzed nucleotide exchange assay (Procedure A, TR-FRET), KRAS-WT; type: biochemical; details: nucleotide exchange, read-out: KRAS WT GNE IC50
Procedure, shortened: as §2

[1] = target: KRAS-G12C (C51S/C80L/C118S) (Homo sapiens, UniProt P01116, C118S/C51S/C80L/G12C); assay: SOS-catalyzed nucleotide exchange assay (Procedure A, TR-FRET), KRAS-G12C; type: biochemical; details: nucleotide exchange, Procedure A; read-out: KRAS G12C GNE IC50
Procedure, shortened: as §2

KRAS-G13D = KRAS-G13D (Homo sapiens, UniProt P01116, G13D); assay: SOS-catalyzed nucleotide exchange assay (Procedure A, TR-FRET), KRAS-G13D; type: biochemical; details: nucleotide exchange, Procedure A; read-out: KRAS G13D GNE IC50
HRAS = HRAS (Homo sapiens, UniProt P01112); assay: SOS-catalyzed nucleotide exchange assay (Procedure A, TR-FRET), HRAS; type: biochemical; details: read-out: HRAS GNE IC50
From the text: Procedure for SOS-Catalyzed Nucleotide Exchange Assay for KRAS-WT, G12C/D/V, G13D, HRAS, and NRAS (Procedure A)
Recombinant KRAS-G12C protein used in this assay has an additional triple mutation (C51S/C80L/C118S). Whereas KRAS-WT, G12D/V, G13D, HRAS and NRAS are in context of their WT protein sequence background. Specifically, the SOS-catalyzed nucleotide exchange assay utilizes a preformed TR-FRET complex containing a specific biotinylated RAS protein (KRAS-WT, G12C/V/D, G13D, HRAS, NRAS; described above) with Bodipy-GDP, and Terbium-streptavidin. Compounds are preincubated with this complex for 60 minutes. Subsequently, recombinant human SOS protein and unlabeled GTP are added to initiate the exchange reaction. Small molecule inhibitors stabilize the Bodipy-GDP complex whereas the untreated protein rapidly exchanges Bodipy-GDP for unlabeled GTP resulting in reduced TR-FRET signal.
To assemble the preformed TR-FRET complexes, each biotinylated RAS protein is diluted to 2 μM in an EDTA Buffer (20 mM HEPES pH 7.5, 50 mM sodium chloride, 10 mM EDTA, and 0.01% Tween) and incubated at room temperature for one hour. This mixture is then further diluted to 90 nM in an Assay Buffer (20 mM HEPES pH 7.5, 150 mM sodium chloride, 10 mM magnesium chloride, and 0.005% Tween) containing 15 nM of Terbium-Streptavidin (Invitrogen, catalog #PV3577) and 900 nM of Bodipy-GDP (Invitrogen, catalog #G22360) and incubated at room temperature for six hours. It should be noted that this preformed TR-FRET complex for each of the RAS protein were made ahead of time, aliquoted and stored at −80° C. until the day of the experiment.
Each test compound (10 mM stock in DMSO) is diluted in DMSO to make a final-10-point, 3-fold dilution and is acoustically dispensed into a 384-well assay plate (Corning, catalog #3820) using an Echo 550 (Labcyte). Each well of the assay plate receives 3 μL of a specific 3×RAS preformed TR-FRET complex and 3 μL of Assay Buffer and is incubated at room temperature for 60 minutes (preincubation time). Each well then receives 3 μL of 3×recombinant human SOS protein and GTP (Sigma, G8877) in Assay Buffer and is incubated at room temperature for 30 minutes (G13D), 60 minutes (KRAS WT/G12C/D, H/NRAS) or 90 minutes for G12V. The final reaction in each well of 9 μL consists of 3 mM GTP, specific Ras and SOS proteins in the following concentrations: KRAS-G12C/SOS=3 nM/40 nM, KRAS-WT and G12D/SOS=1 nM/40 nM, KRAS-G12V/SOS=1.25 nM/160 nM. KRAS-G13D/SOS=1.25 nM/0 nM, HRAS and NRAS=1.25 nM/40 nM.
The time-resolved fluorescence resonance energy transfer (TR-FRET) signal is measured on an Envision (PerkinElmer) plate reader: Excitation filter=340 nm; emission 1=495 nm; emission2=520 nm; dichroic mirror=D400/D505; delay time=[…]. The signal of each well is determined as the ratio of the emission at 520 nm to that at 495 nm. Percent effect of each well is determined after normalization to control wells containing DMSO (no effect) or a saturating concentration of inhibitor (max effect). The apparent effect as a function of compound concentration is fit to a four-parameter logistic equation.

[2] = SW-620, 2 hours compound incubation

Sequence of KRAS-G12V (P01116 with tags, fused parts or gaps isoform P01116-2 G12V): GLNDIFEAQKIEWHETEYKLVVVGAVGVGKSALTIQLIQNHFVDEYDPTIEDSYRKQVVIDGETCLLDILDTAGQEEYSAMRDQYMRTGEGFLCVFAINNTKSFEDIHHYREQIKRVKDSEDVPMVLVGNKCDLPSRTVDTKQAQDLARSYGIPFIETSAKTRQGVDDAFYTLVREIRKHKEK
Sequence of KRAS-G13D (P01116 with tags, fused parts or gaps isoform P01116-2 G13D): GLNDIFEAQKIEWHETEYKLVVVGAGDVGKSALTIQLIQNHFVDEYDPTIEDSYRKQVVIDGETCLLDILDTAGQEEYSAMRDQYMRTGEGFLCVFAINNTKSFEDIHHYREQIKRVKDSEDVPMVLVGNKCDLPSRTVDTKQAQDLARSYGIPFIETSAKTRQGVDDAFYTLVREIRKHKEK
Sequence of HRAS (P01112 with tags, fused parts or gaps): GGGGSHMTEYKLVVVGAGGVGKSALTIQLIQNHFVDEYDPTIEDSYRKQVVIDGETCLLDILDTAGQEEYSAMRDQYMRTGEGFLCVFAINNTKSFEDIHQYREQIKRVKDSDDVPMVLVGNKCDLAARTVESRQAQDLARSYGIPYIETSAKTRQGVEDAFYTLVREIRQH
Sequence of KRAS-WT (P01116 with tags, fused parts or gaps isoform P01116-2): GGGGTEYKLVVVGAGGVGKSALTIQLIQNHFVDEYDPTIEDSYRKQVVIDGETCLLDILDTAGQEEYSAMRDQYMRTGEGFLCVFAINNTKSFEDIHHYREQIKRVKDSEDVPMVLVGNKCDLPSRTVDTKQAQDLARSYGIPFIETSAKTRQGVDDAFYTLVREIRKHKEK
Sequence of KRAS-G12C (C51S/C80L/C118S) (P01116 with tags, fused parts or gaps isoform P01116-2 G12C/C51S/C80L/C118S): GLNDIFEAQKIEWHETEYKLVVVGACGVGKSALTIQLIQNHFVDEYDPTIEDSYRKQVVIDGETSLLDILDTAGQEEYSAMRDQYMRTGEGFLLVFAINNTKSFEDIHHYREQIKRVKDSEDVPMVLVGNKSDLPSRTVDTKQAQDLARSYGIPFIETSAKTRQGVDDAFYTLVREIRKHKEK
Sequence of KRAS-G12D (P01116 with tags, fused parts or gaps isoform P01116-2 G12D): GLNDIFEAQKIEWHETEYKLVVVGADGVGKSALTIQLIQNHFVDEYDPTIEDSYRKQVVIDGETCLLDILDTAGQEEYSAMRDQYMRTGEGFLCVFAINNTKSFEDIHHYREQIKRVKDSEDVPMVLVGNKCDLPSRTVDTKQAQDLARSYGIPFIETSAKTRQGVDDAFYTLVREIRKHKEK

SMILES	IC50 (MKN-1 cells; 2 hours compound incubation)	IC50 (SW620 cells; [2])	IC50 (KRAS-G12D)	IC50 (KRAS-G12V)	IC50 (AsPC-1 cells; 2 hours compound incubation)	IC50 (KRAS-WT)	IC50 [1]	IC50 (KRAS-G13D)	IC50 (HRAS)	IC50 (MKN-1 cells; amplified wild-type KRAS, 2 hours)	IC50 (SW620 cells; SW-620, KRAS-G12V, 2 hours)	IC50 (AsPC-1 cells; KRAS-G12D, 2 hours)
C[C@@]1(O)COCCN(c2nc(OC[C@]3(CN4C[C@H]5CCCO[C@H]5C4)CC3(F)F)nc3sc4c(-c5c(C6(F)CC6)c(Cl)cc6[nH]ncc56)nccc4c23)C1 [Ex-255, (6S)-4-(8-(6-chloro-5-(1-fluorocyclopropyl)-1H-indazol-4-yl)-2-(((R)-2,2-difluoro-1-(((4aR,7aR)-hexahydropyrano[2,3-c]pyrrol-6(2H)-yl)methyl)cyclopropyl)metho-xy)pyrido[4′,3′:4,5]thieno[2,3-d]pyrimidin-4-yl)-6-methyl-1,4-oxazepan-6-o1]	25.3 nM	40.1 nM	4.79 nM	14.9 nM	93.3 nM	18.5 nM	86.7 nM	12.8 nM	1390 nM			
C=C1CN2CCC[C@@]2(COc2nc(N3CCOC[C@@](C)(O)C3)c3c(n2)sc2c(-c4c(C5CC5)c(Cl)cc5[nH]ncc45)nccc23)C1 [Ex-224, (6S)-4-(8-(6-chloro-5-cyclopropyl-1H-indazol-4-yl)-2-(((S)-2-methylene-tetrahydro-1H-pyrrolizin-7a(5H)-yl)methoxy)pyrido [4′,3′:4,5]thieno[2,3-d]pyrimidin-4-yl)-6-methyl-1,4-oxaze-pan-6-ol]	23.5 nM	9.81 nM	2.72 nM	11.9 nM	19.4 nM	5.37 nM	19 nM	5.48 nM	3310 nM			
C[C@@]1(O)COCCN(c2nc(OC[C@@]34CCCN3C[C@H](F)C4)nc3sc4c(-c5c(C6CC6)c(Cl)cc6[nH]ncc56)nncc4c23)C1 [Ex-280, (6S)-4-(8-(6-chloro-5-cyclopropyl-1H-indazol-4-yl)-2-(((2R,7aS)-2-fluorotetrahydro-1H-pyrrolizin-7a(5H)-yl)methoxy)pyrimi-do[5′,4′:4,5]thieno[2,3-d]pyridazin-4-yl)-6-methyl-1,4-oxazepan-6-ol]			4.55 nM	12.4 nM		9.47 nM	61 nM	4.89 nM	8660 nM	62 nM	106 nM	78.2 nM
C[C@@]1(O)COCCN(c2nc(OC[C@@]34CCCN3C/C(=C/F)C4)nc3sc4c(-c5c(C6CC6)c(Cl)cc6[nH]ncc56)nccc4c23)C1 [Ex-209, (6S)-4-(8-(6-chloro-5-cyclopropyl-1H-indazol-4-yl)-2-(((S,E)-2-(fluoro-methylene)tetra-hydro-1H-pyrrol-izin-7a(5H)-yl)-methoxy)pyrido [4′,3′:4,5]thieno [2,3-d]pyrimidin-4-yl)-6-methyl-1,4-oxazepan-6-ol]	158 nM	49.7 nM	2.91 nM	12 nM	53 nM	9.46 nM	47.7 nM	13.6 nM	9430 nM			
CN1CCC[C@@]2(COc3nc(N4CCOC[C@@](C)(O)C4)c4c(n3)sc3c(-c5c(C6(F)CC6)c(Cl)cc6[nH]ncc56)nccc34)CCC[C@@H]12 [Ex-268, (6S)-4-(8-(6-chloro-5-(1-fluorocyclopropyl)-1H-indazol-4-yl)-2-(((4aS,7aR)-1-methyloctahydro-4aH-cyclopenta[b]pyridin-4a-yl)methoxy)pyri-do[4′,3′:4,5]thi-eno[2,3-d]pyrimidin-4-yl)-6-methyl-1,4-oxazepan-6-ol]	30.7 nM	27.6 nM	2.47 nM	5.79 nM	56 nM	5.72 nM	87.5 nM	10.3 nM	4190 nM			
C[C@@]1(O)COCCN(c2nc(OC[C@]3(CN4CC(CF)C4)CC3(F)F)nc3sc4c(-c5c(C6(F)CC6)c(Cl)cc6[nH]ncc56)nccc4c23)C1 [Ex-266, (6S)-4-(8-(6-chloro-5-(1-fluorocyclopropyl)-1H-indazol-4-yl)-2-(((R)-2,2-difluoro-1-((3-(fluoromethyl)azetidin-1-yl)methyl)cyclopropyl)metho-xy)pyrido[4′,3′:4,5]thieno[2,3-d]pyrimidin-4-yl)-6-methyl-1,4-oxazepan-6-ol]	47.3 nM	39.2 nM	3.75 nM	21.6 nM	89.7 nM	23.4 nM	68.8 nM	28.2 nM	1290 nM			
C[C@H]1CCN1C[C@@]1(COc2nc(N3CCOC[C@@](C)(O)C3)c3c(n2)sc2c(-c4c(C5(F)CC5)c(Cl)cc5[nH]ncc45)nccc23)CC1(F)F [Ex-253, (6S)-4-(8-(6-chloro-5-(1-fluorocyclopropyl)-1H-indazol-4-yl)-2-(((R)-2,2-difluoro-1-(((S)-2-methylazetidin-1-yl)methyl)cyclopropyl)metho-xy)pyrido[4′,3′:4,5]thieno[2,3-d]pyrimidin-4-yl)-6-methyl-1,4-oxazepan-6-ol]	49.7 nM	49.6 nM	4.1 nM	15.9 nM	57.6 nM	20.1 nM	15.2 nM	18.4 nM	1060 nM			
C#Cc1c(F)sc2cc3[nH]ncc3c(-c3nccc4c3sc3nc(OC[C@@]56CCCN5C[C@H](F)C6)nc(N5CCOC[C@@](C)(O)C5)c34)c12 [Ex-164]	14.6 nM	2.76 nM	1.49 nM	3.15 nM	5.76 nM	2.06 nM	35.1 nM	6.61 nM	1890 nM			

Source: patent publication US20260176289A1, “SMALL MOLECULE INHIBITORS OF KRAS PROTEINS” (Merck Sharp & Dohme LLC, priority 2022, published 2026)
